# Measured values from PMC3050703 (Cancer chemotherapy and pharmacology, 2010).
# Read-outs that look alike come from different tables or passages of the source.
# Key:
# Abl = conditions: read-out: Ki Abl; ref [3]; cited from earlier work
# MCF-7 cells = conditions: read-out: IC50 proliferation of transformed MCF-7 cells; ref [1]; cited from earlier work
# Aurora kinase A = conditions: read-out: Ki Aurora kinase A; ref [3]; cited from earlier work
# [1] = Plasma pharmacokinetics in patients; format: in vivo, human; conditions: for clearance / half-life / Vd / Cmax: human, plasma, intravenous
# advanced solid tumors = assay: Anti-tumor activity per RECIST in patients; format: in vivo, human
# [2] = tested on: xenografts of leukemia, pancreatic cancer, and colon cancer; conditions: ref [1]; cited from earlier work
# T315I mutant Abl kinase = conditions: read-out: Ki T315I mutant Abl; ref [3]; cited from earlier work
# HCT116 colon cancer = conditions: ref [1], cited from earlier work
# [3] = Dose Level 1 (4 mg/m^2/hr), N=1, any cycle, regardless of attribution
# [4] = Dose Level 2 (8 mg/m^2/hr), N=2, any cycle, regardless of attribution
# [5] = Dose Level 3 (16 mg/m^2/hr), N=2, any cycle, regardless of attribution
# [6] = Dose Level 4 (32 mg/m^2/hr), N=3, any cycle, regardless of attribution
# [7] = Dose Level 5 (45 mg/m^2/hr), N=4, any cycle, regardless of attribution
# [8] = Dose Level 6 (64 mg/m^2/hr), N=2, any cycle
# [9] = Dose Level 6 (64 mg/m^2/hr), N=2, any cycle, regardless of attribution
# [10] = Dose Level 6 (oral 100 mg) (64 mg/m^2/hr), N=7, any cycle
# [11] = Dose Level 6 (oral 100 mg) (64 mg/m^2/hr), N=7, any cycle, regardless of attribution
# [12] = Dose Level 7 (96 mg/m^2/hr), N=6, any cycle
# [13] = Dose Level 7 (96 mg/m^2/hr), N=6, any cycle, regardless of attribution
compound,measurement,setting,value
Cc1cc(Nc2cc(N3CCN(C)CC3)nc(Sc3ccc(NC(=O)C4CC4)cc3)n2)[nH]n1 [MK-0457],Ki,Abl,30 nM
same,IC50,MCF-7 cells,15 to 113 nM
same,dose limiting toxicity,96 mg/m^2/hr 24-hour CIV infusion (dose level 7),grade 4 neutropenia and grade 3 herpes zoster
same,maximum tolerated dose (MTD),"24-hour CIV infusion every 21 days, patients with advanced solid tumors",64 mg/m^2/hr
same,number of patients with Fatigue Grade 2,[3],1
same,number of patients with Nausea Grade 3,[3],1
same,number of patients with Vomiting Grade 3,[3],1
same,number of patients with Arthralgia Grade 2,[4],1
same,number of patients with Back pain Grade 2,[4],1
same,number of patients with Fatigue Grade 2,[4],1
same,number of patients with Hypoalbuminemia Grade 2,[4],1
same,number of patients with Increased alk phos (alkaline phosphatase) Grade 2,[4],1
same,number of patients with Urinary tract infection Grade 2,[4],1
same,number of patients with Diarrhea Grade 2,[5],1
same,number of patients with Nausea Grade 3,[5],1
same,number of patients with Vomiting Grade 3,[5],1
same,number of patients with Arthralgia Grade 2,[6],1
same,number of patients with Diarrhea Grade 2,[6],1
same,number of patients with Fatigue Grade 2,[6],1
same,number of patients with Nausea Grade 2,[6],1
same,"number of patients with Vomiting (printed on the heading line, no grade)",[6],1
same,number of patients with Neutropenia Grade 3,"Dose Level 5 (45 mg/m^2/hr), N=4, any cycle",1
same,number of patients with Back pain Grade 2,[7],1
same,number of patients with Dyspnea Grade 2,[7],1
same,number of patients with Fatigue Grade 2,[7],2
same,number of patients with Hypophosphatemia Grade 3,[7],1
same,number of patients with Nausea Grade 2,[7],1
same,"number of patients with Vomiting (printed on the heading line, no grade)",[7],1
same,number of patients with Leukopenia Grade 3,[8],1
same,number of patients with Neutropenia Grade 3,[8],1
same,number of patients with Arthralgia Grade 2,[9],1
same,number of patients with Fatigue Grade 3,[9],1
same,number of patients with Hyperglycemia Grade 3,[9],1
same,number of patients with Hypoalbuminemia Grade 2,[9],1
same,number of patients with Hypophosphatemia Grade 2,[9],1
same,number of patients with Urinary tract infection Grade 2,[9],1
same,number of patients with Leukopenia Grade 3,[10],1
same,number of patients with Neutropenia Grade 3,[10],1
same,number of patients with Arthralgia Grade 4,[11],1
same,number of patients with Back pain Grade 2,[11],1
same,number of patients with Diarrhea Grade 3,[11],2
same,number of patients with Dyspnea Grade 2,[11],2
same,number of patients with Fatigue Grade 2,[11],5
same,number of patients with Hyperglycemia Grade 2,[11],1
same,number of patients with Hyperglycemia Grade 3,[11],1
same,number of patients with Hypoalbuminemia Grade 2,[11],1
same,number of patients with Hypophosphatemia Grade 2,[11],2
same,number of patients with Hypophosphatemia Grade 3,[11],1
same,number of patients with Nausea Grade 2,[11],2
same,number of patients with Urinary tract infection Grade 2,[11],1
same,number of patients with Vomiting Grade 3,[11],2
same,number of patients with Anemia Grade 3,[12],1
same,number of patients with Leukopenia Grade 3,[12],3
same,number of patients with Neutropenia Grade 3,[12],1
same,number of patients with Neutropenia Grade 4,[12],1
same,number of patients with Diarrhea Grade 2,[13],1
same,number of patients with Dyspnea Grade 3,[13],1
same,number of patients with Fatigue Grade 2,[13],3
same,number of patients with Hypoalbuminemia Grade 3,[13],1
same,number of patients with Increased alk phos (alkaline phosphatase) Grade 2,[13],1
same,number of patients with Urinary tract infection Grade 2,[13],1
same,prolongation of the QTc,"ECG pre-dose and after 24-hour infusion, cycle 1",not observed
same,febrile neutropenia,"all dose levels, any cycle",no cases
same,patients with dose reduced due to toxicity,of 27 patients (11%),Three
same,patients with treatment delayed or dose reduced due to toxicity,of 27 patients (15%),4 patients
same,patients with serious adverse events regardless of attribution,"of 27 patients (33%), all dose levels",9 patients
same,deaths on study or within 30 days of follow-up,patients who received MK-0457,no deaths
same,adverse events at least possibly related to study drug after oral dose,"single 100 mg capsule, between oral dose and start of CIV infusion, 7 patients",No adverse events
same,Total AUC,"[1]; 24-hour CIV 16 mg/m^2/hr, N=1, cycle 1",18.8 µM·h
same,dose-adjusted AUC (average),[1]; 24-hour CIV infusion,0.0315 µM·h/mg
same,clearance,[1],900 to 2320 mL/min
same,half-life,[1],6.6 to 10.2 h
same,Vd,[1]; 8 mg/m2,735 L
same,clearance,[1]; 8 mg/m2,2320 mL/min
same,half-life,[1]; 8 mg/m2,9.3 h
same,Cmax,[1]; 8 mg/m^2/hr,274 nM
same,Vd,[1]; 16 mg/m2,514 L
same,clearance,[1]; 16 mg/m2,1690 mL/min
same,half-life,[1]; 16 mg/m2,8.5 h
same,Cmax,[1]; 16 mg/m^2/hr,911 nM
same,Vd,[1]; 32 mg/m2,328 L
same,clearance,[1]; 32 mg/m2,1160 mL/min
same,half-life,[1]; 32 mg/m2,10.2 h
same,Cmax,[1]; 32 mg/m^2/hr,2170 nM
same,Vd,[1]; 45 mg/m2,429 L
same,clearance,[1]; 45 mg/m2,1390 mL/min
same,half-life,[1]; 45 mg/m2,10.2 h
same,Cmax,[1]; 45 mg/m^2/hr,2670 nM
same,Vd,[1]; 64 mg/m2,301 L
same,clearance,[1]; 64 mg/m2,1270 mL/min
same,half-life,[1]; 64 mg/m2,8 h
same,Cmax,[1]; 64 mg/m^2/hr,4010 nM
same,Vd,[1]; 96 mg/m2,248 L
same,clearance,[1]; 96 mg/m2,893 mL/min
same,half-life,[1]; 96 mg/m2,6.6 h
same,Cmax,[1]; 96 mg/m^2/hr,7640 nM
same,objective anti-tumor responses (RECIST),advanced solid tumors; all dose levels,no objective anti-tumor responses
same,patients with stable disease (2 or more cycles without progression),advanced solid tumors; all dose levels,12 patients
same,tumor response in nude mice xenografts,[2],marked tumor regression
same,Ki,T315I mutant Abl kinase,42 nM
same,"marked tumor regression, number of HCT116 nude rat models",HCT116 colon cancer,4 of 7
